The text below walks through data of patent US7601746B2 (Shionogi & Co., Ltd., priority 2003, dated 2009).

This test has as its target T1, human TPO receptor (hTPOR) (Homo sapiens, UniProt P40238).
T1 construct: expressed in transfected cells; host or cells: BaF-B03 (murine IL-3 dependent cell line)
T1 sequence (P40238 26-635): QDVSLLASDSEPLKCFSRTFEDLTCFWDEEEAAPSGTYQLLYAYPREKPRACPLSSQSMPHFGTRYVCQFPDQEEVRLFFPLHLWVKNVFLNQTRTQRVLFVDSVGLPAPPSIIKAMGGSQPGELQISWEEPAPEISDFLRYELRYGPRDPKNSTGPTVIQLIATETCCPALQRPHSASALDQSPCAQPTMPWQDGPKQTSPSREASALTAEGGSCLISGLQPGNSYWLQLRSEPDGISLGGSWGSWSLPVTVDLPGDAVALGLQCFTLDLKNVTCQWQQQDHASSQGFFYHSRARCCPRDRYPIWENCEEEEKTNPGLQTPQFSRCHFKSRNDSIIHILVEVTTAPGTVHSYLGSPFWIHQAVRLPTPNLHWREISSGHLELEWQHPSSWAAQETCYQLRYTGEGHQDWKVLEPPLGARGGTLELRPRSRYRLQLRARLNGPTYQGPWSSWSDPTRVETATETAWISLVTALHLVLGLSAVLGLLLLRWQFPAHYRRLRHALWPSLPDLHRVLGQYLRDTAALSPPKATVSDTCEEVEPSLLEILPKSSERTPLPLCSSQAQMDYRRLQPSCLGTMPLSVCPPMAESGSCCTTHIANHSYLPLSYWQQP
In words: Thrombopoietic activity: proliferation of TPO dependent BaF/hTPOR cells (WST-1, absorbance at 450 nm). Type of test: cell-based. The settings on record: 20 h + 4 h WST-1, ED50 = half concentration of the concentration showing the maximum thrombopoietic activity. An outline of the steps:
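Proliferation read-out: WST-1 absorbance at 450 nm after 20 h compound exposure plus 4 h reagent, using IL-3-deprived BaF/hTPOR cells (5×10^4 per well) dependent on human TPO receptor signalling. ED50 defined as half the concentration producing maximal activity.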
In general terms: Tetrazolium assays rely on reduction of a dye to a coloured formazan, in cell work by metabolically active cells.

As for `CCCCCCOC(CC)c1cccc(-c2csc(NC(=O)c3cc(Cl)c(C=C(C)C(=O)O)c(Cl)c3)n2)c1F` (stereo not drawn) [Compound B83, 3-(2,6-dichloro-4-{4-[2-fluoro-3-(1-n-hexyloxypropyl)phenyl]thiazol-2-ylcarbamoyl}phenyl)-2-methylacrylic acid], the concentration for a half-maximal effect (EC50) (as a rule, the concentration giving half of the maximal effect) (Table 1) is 0.72 nM. On the same count and under the same terms, as for `CCCCC(OCC)c1cccc(-c2csc(NC(=O)c3cc(F)c(C=C(C)C(=O)O)c(F)c3)n2)c1F` (stereo not drawn) [Compound B27, 3-(2,6-difluoro-4-{4-[3-(1-ethyloxypentyl)-2-fluorophenyl]thiazol-2-ylcarbamoyl}phenyl)-2-methylacrylic acid], the figure is 0.75 nM; as for `COc1c(CCCOCC2CCCC2)cccc1-c1csc(NC(=O)c2cc(Cl)c(/C=C(\C)C(=O)O)c(Cl)c2)n1` [Compound B1949, (E)-3-(2,6-dichloro-4-{4-[3-(3-cyclopentylmethyloxypropyl)-2-methyloxyphenyl]thiazol-2-ylcarbamoyl}phenyl)-2-methylacrylic acid], 13.2 nM. On to `COc1c(CCCOCC(C)C)cccc1-c1csc(NC(=O)c2cc(Cl)c(/C=C(\C)C(=O)O)c(Cl)c2)n1` [Compound B1878, (E)-3-(2,6-dichloro-4-{4-[3-(3-isobuyloxypropyl)-2-methyloxyphenyl]thiazol-2-ylcarbamoyl}phenyl)-2-methylacrylic acid], for which the concentration giving a half-maximal response (EC50) (Table 2) is 21.2 nM. With `COc1c(COCCC(C)(C)C)cccc1-c1csc(NC(=O)c2cc(Cl)c(C=C(C)C(=O)O)c(Cl)c2)n1` (stereo in doubt) [Compound B1936, (Z)-3-(2,6-dichloro-4-{4-[3-(3,3-dimethylbutyloxymethyl)-2-methyloxyphenyl]thiazol-2-ylcarbamoyl}phenyl)-2-methylacrylic acid], the EC50 (Table 1) amounted to 17.1 nM. Same read-out and setting: with `CCCCOCCCc1cccc(-c2csc(NC(=O)c3cc(Cl)c(C=C(C)C(=O)O)c(Cl)c3)n2)c1F` [Compound B93, 3-(4-{4-[3-(3-n-butyloxypropyl)-2-fluorophenyl]thiazol-2-ylcarbamoyl}-2,6-dichlorophenyl]-2-methylacrylic acid] the figure was 0.91 nM; with `CCCCOC(CCC)c1cccc(-c2csc(NC(=O)c3cc(Cl)c(C=C(C)C(=O)O)c(Cl)c3)n2)c1F` (stereo not drawn) [Compound B79, 3-(4-{4-[3-(1-n-butyloxybutyl)-2-fluorophenyl]thiazol-2-ylcarbamoyl}-2,6-dichlorophenyl)-2-methylacrylic acid], 0.77 nM. Consider `COc1c(CCOCCCCCl)cccc1-c1csc(NC(=O)c2cc(Cl)c(/C=C(\C)C(=O)O)c(Cl)c2)n1` [Compound B1963, (E)-3-[2,6-dichloro-4-(4-{3-[2-(4-chlorobutyloxy)ethyl]-2-methyloxyphenyl}thiazol-2-ylcarbamoyl)phenyl]-2-methylacrylic acid], for which the EC50 (Table 2) came out at 28.6 nM. The same measure, in the same setting: with `CO/C(=C\c1c(Cl)cc(C(=O)Nc2nc(-c3cccc(OCCC4CCCCC4)c3OC)cs2)cc1Cl)C(=O)O` [Compound B1919] the figure was 27.9 nM. Consider `CCC(CC)COCCc1cccc(-c2csc(NC(=O)c3cc(F)c(/C=C(\C)C(=O)O)c(F)c3)n2)c1OC` [Compound B1959, (E)-3-[4-(4-{3-[2-(2-ethylbutyloxy)ethyl]-2-methyloxyphenyl}thiazol-2-ylcarbamoyl)-2,6-difluorophenyl]-2-methylacrylic acid], for which the concentration for a half-maximal effect (EC50) (Table 1) is 11.3 nM. Still for that read-out and setting: as for `CO/C(=C\c1c(F)cc(C(=O)Nc2nc(-c3cccc(CCOCCC(C)C)c3OC)cs2)cc1F)C(=O)O` [Compound B1956], the figure is 15.1 nM; as for `CCCCCOCCCC(OC)c1cccc(-c2csc(NC(=O)c3cc(F)c(C=C(C)C(=O)O)c(F)c3)n2)c1F` (stereo not drawn) [Compound B53, 3-(2,6-difluoro-4-{4-[2-fluoro-3-(1-methyloxy-4-n-pentyloxybutyl)phenyl]thiazol-2-ylcarbamoyl}phenyl)-2-methylacrylic acid], 1.4 nM. On the same count and under the same terms, with `CCCOCCCc1cccc2c1OCc1sc(NC(=O)c3cc(Cl)c(/C=C(\C)C(=O)O)c(Cl)c3)nc1-2` [Compound A1123, (E)-3-{2,6-dichloro-4-[6-(3-propyloxypropyl)-4H-chromeno[4,3-d]thiazol-2-ylcabamoyl]phenyl}-2-methylacrylic acid] the figure was 7.27 nM. The same measure, in the same setting: with `COc1c(CCCOCC(C)(C)C)cccc1-c1csc(NC(=O)c2cc(Cl)c(/C=C(\C)C(=O)O)c(Cl)c2)n1` [Compound B1833, (E)-3-[2,6-dichloro-4-(4-{3-[3-(2,2-dimethylpropyloxy)propyl)-2-methyloxyphenyl]thiazol-2-ylcarbamoyl}phenyl)-2-methylacrylic acid] the figure was 19 nM; with `CCCCCOCCCc1cccc(-c2csc(NC(=O)c3cc(Cl)c(C=C(C)C(=O)O)c(Cl)c3)n2)c1F` [Compound B90], 1.15 nM. As for `CO/C(=C\c1c(F)cc(C(=O)Nc2nc(-c3cccc(C(OC)C(C)(C)C)c3F)c(OC)s2)cc1F)C(=O)O` (stereo not drawn) [Compound B1908, (Z)-3-(2,6-difluoro-4-{4-[2-fluoro-3-(1-methyloxy-2,2-dimethylpropyl)phenyl]-5-methyloxythiazol-2-ylcarbamoyl}phenyl)-2-methyloxyacrylic acid], the concentration giving a half-maximal response (EC50) (Table 2) was found to be 26.3 nM. As for `CCCCOC(C)c1cccc(-c2csc(NC(=O)c3cc(Cl)c(/C=C(\C)C(=O)O)c(Cl)c3)n2)c1OC` (stereo not drawn) [Compound B1122, (E)-3-(4-{4-[3-(1-butyloxyethyl)-2-methyloxyphenyl]thiazol-2-ylcarbamoyl}-2,6-dichlorophenyl)-2-methylacrylic acid], the EC50 (Table 1) came to 8.25 nM. On the same count and under the same terms, as for `CCCC(CCC)(OC)c1cccc(-c2csc(NC(=O)c3cc(F)c(C=C(C)C(=O)O)c(F)c3)n2)c1F` [Compound B8], the figure is 4 nM; as for `CO/C(=C\c1c(Cl)cc(C(=O)Nc2nc(-c3cccc(COCC(C)(C)C)c3OC)cs2)cc1Cl)C(=O)O` [Compound B2022, (Z)-3-(2,6-dichloro-4-{4-[3-(2,2-dimethylpropyloxymethyl)-2-methyloxyphenyl]thiazol-2-ylcarbamoyl}phenyl)-2-methyloxyacrylic acid], 15.6 nM. Take `CCCCCCC(OC)c1cccc(-c2csc(NC(=O)c3cc(F)c(C=C(C)C(=O)O)c(F)c3)n2)c1F` (stereo not drawn) [Compound B23, 3-(2,6-difluoro-4-{4-[2-fluoro-3-(1-methyloxyheptyl)phenyl]thiazol-2-ylcarbamoyl}phenyl)-2-methylacrylic acid]: the EC50 (Table 1) worked out at 1.23 nM. Still for that read-out and setting: as for `CCC(CC)COCc1cccc(-c2csc(NC(=O)c3cc(F)c(/C=C(\C)C(=O)O)c(F)c3)n2)c1OC` [Compound B2023, (E)-3-(4-{4-[3-(2-ethylbutyloxymethyl)-2-methyloxyphenyl]thiazol-2-ylcarbamoyl}-2,6-difluorophenyl)-2-methyl acrylic acid], the figure is 6.45 nM; as for `CCOCCCCOC(CC)c1cccc(-c2csc(NC(=O)c3cc(F)c(C=C(C)C(=O)O)c(F)c3)n2)c1F` (stereo not drawn) [Compound B22, 3-[2,6-difluoro-4-(4-{3-[1-(4-ethyloxybutyloxy)propyl]-2-fluorophenyl}thiazol-2-ylcarbamoyl)phenyl]-2-methylacrylic acid], 1.14 nM. Still for that read-out and setting: as for `CCCCCCCCCCOCc1cccc(-c2csc(NC(=O)c3cc(F)c(C=C(C)C(=O)O)c(F)c3)n2)c1F` [Compound B32, 3-(2,6-difluoro-4-{4-[2-fluoro-3-(n-decyloxymethyl)phenyl]thiazol-2-ylcarbamoyl}phenyl)-2-methylacrylic acid], the figure is 3.03 nM. On the same count and under the same terms, with `CCOC(c1cccc(-c2csc(NC(=O)c3cc(Cl)c(C=C(C)C(=O)O)c(Cl)c3)n2)c1F)C(C)(C)C` (stereo not drawn) [Compound B56, 3-(2,6-dichloro-4-{4-[3-(1-ethyloxy-2,2-dimethylpropyl)-2-fluorophenyl]thiazol-2-ylcarbamoyl}phenyl)-2-methylacrylic acid] the figure was 2.7 nM.

As to `COc1c(COCCC(C)C)cccc1-c1csc(NC(=O)c2cc(Cl)c(/C=C(\C)C(=O)O)c(Cl)c2)n1` [Compound B2028, (E)-3-(2,6-dichloro-4-{4-[2-methyloxy-3-(3-methylbutyloxymethyl)phenyl]thiazol-2-ylcarbamoyl}phenyl)-2-methylacrylic acid], the EC50 (Table 1) turned out to be 11.4 nM. Same read-out and setting: with `CCCCCCOCCc1cccc(-c2csc(NC(=O)c3cc(F)c(/C=C(\C)C(=O)O)c(F)c3)n2)c1OC` [Compound B1926, (E)-3-(2,6-difluoro-4-{4-[3-(2-hexyloxyethyl)-2-methyloxyphenyl]thiazol-2-ylcarbamoyl)phenyl)-2-methylacrylic acid] the figure was 15.6 nM.

For `CO/C(=C\c1c(Cl)cc(C(=O)Nc2nc(-c3cccc(COCCC(C)(C)C)c3OC)cs2)cc1Cl)C(=O)O` [Compound B1937, (Z)-3-(2,6-dichloro-4-{4-[3-(3,3-dimethylbutyloxymethyl)-2-methyloxyphenyl]thiazol-2-ylcarbamoyl}phenyl)-2-methyloxyacrylic acid], the concentration giving a half-maximal response (EC50) (Table 2) is 23.1 nM.
